Usually Ki stands for the equilibrium dissociation constant of an inhibitor or competing ligand from its target.

Where a chain is given by its changes, count along the chain named.

For 1 compound, Ki results are on record in patent publication US6033823A, “Mutated penicillin G acylase genes” (priority 1994, dated 2000).

What all share (format): biochemical
What all share (conditions): from progress curves of NIPAB deacylation, 25° C., 0.1 M NaH2PO4.H2O buffer pH 7.5, read-out: Ki Phenylacetic acid (inhibition constant, dissociation constant)

For assay [1], the target named is T1, Alcaligenes faecalis Penicillin G acylase mutant B:L56A (Alcaligenes faecalis, UniProt O34142, L321A).
T1 construct: alpha 202 aa, beta 551 aa; recombinant, E. coli host
T1 sequence (O34142 27-228): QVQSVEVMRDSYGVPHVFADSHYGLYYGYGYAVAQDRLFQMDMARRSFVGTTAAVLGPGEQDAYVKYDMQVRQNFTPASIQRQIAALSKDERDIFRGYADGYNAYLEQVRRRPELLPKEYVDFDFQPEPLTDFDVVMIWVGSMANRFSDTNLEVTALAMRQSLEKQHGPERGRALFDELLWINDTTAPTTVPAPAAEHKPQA
T1 sequence (O34142 266-816 L321A): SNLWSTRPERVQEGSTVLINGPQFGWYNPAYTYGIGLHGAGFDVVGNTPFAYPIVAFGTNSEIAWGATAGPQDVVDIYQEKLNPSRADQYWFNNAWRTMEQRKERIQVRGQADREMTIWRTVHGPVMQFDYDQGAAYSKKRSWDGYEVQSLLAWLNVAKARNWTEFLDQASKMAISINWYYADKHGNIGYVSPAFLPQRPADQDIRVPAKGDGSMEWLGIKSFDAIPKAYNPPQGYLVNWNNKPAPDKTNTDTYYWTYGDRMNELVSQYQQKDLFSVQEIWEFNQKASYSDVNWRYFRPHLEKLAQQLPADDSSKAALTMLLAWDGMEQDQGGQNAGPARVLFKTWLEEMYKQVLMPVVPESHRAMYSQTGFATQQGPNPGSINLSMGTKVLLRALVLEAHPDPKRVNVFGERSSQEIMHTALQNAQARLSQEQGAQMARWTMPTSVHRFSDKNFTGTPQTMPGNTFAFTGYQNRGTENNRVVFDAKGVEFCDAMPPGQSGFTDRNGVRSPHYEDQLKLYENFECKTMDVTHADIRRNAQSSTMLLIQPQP
The assay can be described thus: NIPAB kinetics and phenylacetic acid product inhibition, mutant B:L56A. Here is the method:
(§1) In a continuous assay Penicillin G acylase was assayed spectro-fotometrically with the chromogenic substrate NIPAB [6-nitro-3-phenylacetamido-benzoic acid]. The liberation of 3-amino-6-nitrobenzoic acid was monitored by measuring the extinction at 405 nm in a Kontron 610 kinetic spectrofotometer. Measuring maximal rate, the assays were performed at 25° C. using 20 mM NaH2 PO4.H2 O at pH 7.5 with 20 mM NIPAB and 100 μl enzym solution (at a proper dilution). Initial rate measurements were performed with varying concentration of NIPAB.
(§2) Initial rate measurements were performed with excess substrate over the enzyme. Catalytic parameters were derived from least-squares fitting of the measured initial rates plotted for various substrate concentrations according to the Michaelis-Menten equation.
(§3) The complete conversion of NIPAB was followed as a funtion of time at 20, 50 and 100 μM NIPAB by following the increase in absorbtion at 405 nm. Products of this conversion are phenylacetic acid and 3-amino-6-nitrobenzoic acid. The conversion was performed at 25° C. in 0.1 M NaH2 PO4.H2 O buffer pH 7.5. The progress curves of the deacylation of NIPAB could be fitted very well when product inhibition by phenylacetic acid was taken into account. […]

The target in assay [2] is T2, Alcaligenes faecalis Penicillin G acylase mutant B:L56V (Alcaligenes faecalis, UniProt O34142, L321V).
T2 construct: alpha 202 aa, beta 551 aa; recombinant, E. coli host
T2 sequence (O34142 27-228): T1 sequence (O34142 27-228)
T2 sequence (O34142 266-816 L321V): T1 sequence (O34142 266-816 L321A) with A56V
The assay can be described thus: NIPAB kinetics and phenylacetic acid product inhibition, mutant B:L56V. Here is the method:
as §1, §2, §3

Assay [3] has as its target T3, Alcaligenes faecalis Penicillin G acylase mutant B:I177V (Alcaligenes faecalis, UniProt O34142, I442V).
T3 construct: alpha 202 aa, beta 551 aa; recombinant, E. coli host
T3 sequence (O34142 27-228): T1 sequence (O34142 27-228)
T3 sequence (O34142 266-816 I442V): T1 sequence (O34142 266-816 L321A) with A56L, I177V
Description: NIPAB kinetics and phenylacetic acid product inhibition, mutant B:I177V. Here is the method: as §1, §2, §3

As for `O=C(O)Cc1ccccc1` [phenylacetic acid], the Ki is 59 µM in assay [1], 31 µM in assay [2] and 35 µM in assay [3].
